These are literature values, as cited in patent publication US20230413809A1, “DISINFECTANT COMPOSITION FOR SURFACES AND THE PREPARATION THEREOF” (Onyx Lotus, LLC, priority 2020, published 2023).

The conditions of the series: general statement on surfactant detergency, no test described.

Consider `O=C([O-])CC(C(=O)[O-])S(=O)(=O)O.[Na+].[Na+]` (centres unmarked) [sodium sulfosuccinate], for which the “Critical micellar concentration (CMC)” value is given as 0.6 mM.

Regarding `CCCCCCCCCCCCCCCC[N+](C)(C)C.[Br-]` [CTAB, cetyltrimethylammonium bromide], the “Critical micellar concentration (CMC)” value is on record as 0.92 mM.
